From ChEMBL document CHEMBL5108037, “Cyclic Peptide Screening Methods for Preclinical Drug Discovery” (J Med Chem, 2022)

Key:
[1] = biological target: T1, E3 ubiquitin-protein ligase Mdm2 (Homo sapiens, UniProt Q00987); assay: Binding affinity to MDM2 (unknown origin) by surface plasmon resonance analysis
[2] = biological target: T1, E3 ubiquitin-protein ligase Mdm2; assay: Inhibition of MDM2 (unknown origin) by Fluorescence polarization assay

T1 sequence (Q00987 whole entry): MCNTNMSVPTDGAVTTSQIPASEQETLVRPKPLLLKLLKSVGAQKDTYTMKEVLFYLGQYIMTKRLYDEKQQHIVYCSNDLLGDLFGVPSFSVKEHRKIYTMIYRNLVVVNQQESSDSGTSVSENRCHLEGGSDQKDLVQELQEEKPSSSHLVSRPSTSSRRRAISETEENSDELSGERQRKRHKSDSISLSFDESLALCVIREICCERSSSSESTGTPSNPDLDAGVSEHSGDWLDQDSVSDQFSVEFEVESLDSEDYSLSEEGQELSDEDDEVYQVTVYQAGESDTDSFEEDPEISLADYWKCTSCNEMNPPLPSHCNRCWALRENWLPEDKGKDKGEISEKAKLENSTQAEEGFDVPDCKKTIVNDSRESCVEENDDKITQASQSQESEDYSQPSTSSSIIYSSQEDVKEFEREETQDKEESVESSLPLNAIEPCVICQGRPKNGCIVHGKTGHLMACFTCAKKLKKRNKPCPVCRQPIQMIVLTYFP

Kd [1]: 5.5 µM | IC50 [2]: 0.6 µM
SMILES: CN1CCC(=O)NCCSCCS(=O)(=O)CCN(Cc2ccc(C#N)cc2)CC(=O)N[C@@H](Cc2cc3ccc(Cl)cc3[nH]2)C1=O
